Source: publication PMC8493801, “Exploring the Monoterpene Indole Alkaloid Scaffold for Reversing P-Glycoprotein-Mediated Multidrug Resistance in Cancer” (Pharmaceuticals, 2021)
Like-named read-outs stand apart in the source and are kept apart here.

Experiments:
[1] = test system: mouse embryonic fibroblasts (NIH/3T3); experiment: MTT antiproliferative assay, non-cancer cells; assay type: cell-based; settings: for SI C/B (Selectivity Index): IC50 NIH/3T3 / IC50 MDR; for SI C/A (Selectivity Index): IC50 NIH/3T3 / IC50 PAR; for IC50: non-cancer mouse embryonic fibroblasts, MTT, read-out: IC50 NIH/3T3 (C)
Description: (§1) Non-cancer mouse embryonic fibroblasts (NIH/3T3) were also used.
In addition, the antiproliferative activity of the compounds was also evaluated on non-cancerous mouse embryonic fibroblast cells (NIH/3T3), whose values were compared with those of PAR and MDR cells by evaluation of the selective index (SI) values. […] The highest selective index values (SIC/A = 9.39; SIC/B = 10.79) were found for the derivative bearing the trimethoxyphenyl substituent (17).
(§2) L5178Y mouse T-lymphoma cells (ECACC catalog no. 87111908, US FDA, Silver Spring, MD, USA) were transfected with the pHa MDR1/A retrovirus as previously reported. The ABCB1 (P-gp) overexpressing cells were selected by culturing the infected cells with 60 ng/mL of colchicine (Sigma-Aldrich Chemie GmbH, Steinheim, Germany) to preserve the MDR phenotype. L5178Y (parental, PAR) mouse T-cell lymphoma cells and the human ABCB1-transfected subline were cultured in McCoy’s 5A supplemented with 10% heat-inactivated horse serum, 100 U/L L-glutamine, and 100 mg/L penicillin-streptomycin mixture, all obtained from Sigma-Aldrich. The mouse embryonic fibroblast (NIH 3T3) cell line was purchased from ATCC (CRL-1658) and was cultured in DMEM medium supplemented with 10% fetal bovine serum. These adherent cells were detached using 0.25% trypsin and 0.02% EDTA for 5 min at 37 °C. Before the antiproliferative assay using NIH 3T3 cell line, the cells were seeded in untreated 96-well flat bottomed microtiter plates, following a 4 h incubation period in a humidified atmosphere (5% CO2, 95% air) at 37 °C.

[2] = test system: human ABCB1-gene transfected L5178Y subline (MDR); settings: for RR (relative resistance ratio) = IC50MDR/IC50PAR: RR ≤ 0.5 means CS effect
[3] = test system: sensitive L5178Y mouse T-lymphoma cells (PAR); experiment: MTT antiproliferative assay, sensitive cells; assay type: cell-based; settings: 72 h, mean ± SD
Description: as §1, §2
The assay was performed according to the previously applied experimental settings.

[4] = test system: human ABCB1-transfected L5178Y mouse lymphoma cells; experiment: Checkerboard combination assay with doxorubicin; assay type: cell-based; design: key to CI at ED50 (combination index): CI <1 synergy, =1 additive, >1 antagonism; settings: MDR cells; for CI at ED50 (combination index): best ratio
Description: The in vitro interactions between the compounds and the well-known antitumor drug and P-gp substrate, doxorubicin, were evaluated in a combination chemotherapy model on human ABCB1-transfected mouse T-lymphoma cells. The nature of drug–drug interactions was assessed by determination of the combination index (CI) using the Chou and Talalay method (Figure 1), and therefore evaluated as synergistic (CI < 1), additive (CI = 1), or antagonistic (CI > 1).
Doxorubicin (2 mg/mL, Teva Pharmaceuticals, Budapest, Hungary) was serially diluted horizontally in 100 µL as previously described, starting with 8.6 µM. The resistance modifier was subsequently diluted vertically in 50 µL; the starting concentration was determined based on the IC50. […] The checkerboard plates were kept for 72 h at 37 °C in a CO2 incubator, and at the end of the incubation period, the cell growth was determined by MTT staining method, as described earlier. Drug interactions were evaluated using Calcusyn software. Each dose–response curve (for individual agents as well as combinations) was fit to a linear model using the median effect equation in order to obtain the median effect value (corresponding to the IC50) and slope (m). The goodness-of-fit was assessed using the linear correlation coefficient, r, and only data from analysis with r > 0.90 were presented. The extent of interaction between drugs was expressed using the combination index, in which a CI value close to 1 indicates additivity, while a CI < 1 is defined as synergy and a CI > 1 as antagonism.

IC50 [2] [µM]	RR (relative resistance ratio) = IC50MDR/IC50PAR [2]	IC50 [3] [µM]	SMILES	SI C/B (Selectivity Index) [1]	SI C/A (Selectivity Index) [1]	IC50 ([1]; NIH3T3) [µM]	CI at ED50 (combination index) [4]	Interaction [4]	IC50 [1] [µM]
8.4 ± 0.52		23.7 ± 0.64	CCC1CN(C)C2Cc3c([nH]c4ccccc34)C(=NN=Cc3ccc(OC(F)(F)F)cc3)CC1C2C(=O)OC (stereo not shown) [Compound 11, 3-[(4″-(trifluoromethoxy)benzylidene)hydrazineylidene]dregamine]	1.60	0.57	13.5 ± 1.14	0.601	Synergism	
11.7 ± 0.67	0.56	20.7 ± 0.8	CCC1CN(C)C2Cc3c([nH]c4ccccc34)C(=NN=Cc3ccc(C(F)(F)F)cc3)CC1C2C(=O)OC (stereo not shown) [Compound 10, 3-[(4″-(trifluoromethyl)benzylidene)hydrazineylidene]dregamine]	1.06	0.60	12.4 ± 1.58	0.272	Strong Synergism	
8.64 ± 0.67		18.1 ± 2.69	CCC1CN(C)C2Cc3c([nH]c4ccccc34)C(=NN=Cc3ccc(OC)cc3)CC1C2C(=O)OC (stereo not shown) [Compound 14, 3-[(4″-methoxybenzylidene)hydrazineylidene]dregamine]	2.28	1.09	19.7 ± 0.41	0.402	Synergism	
6.48 ± 0.25	0.93	6.97 ± 0.12	CCC1CN(C)C2Cc3c([nH]c4ccccc34)C(=NNC(=O)Nc3ccc(C(F)(F)F)cc3)CC1C2C(=O)OC (stereo not shown) [Compound 31, 3-[2″-((4‴-(trifluoromethyl)phenyl)carbamoyl)hydrazineylidene]dregamine]	1.03	0.96	6.7 ± 0.06	0.296	Strong Synergism	
7.75 ± 0.55		26.4 ± 0.53	CCC1CN(C)C2Cc3c([nH]c4ccccc34)C(=NN=Cc3ccc(O)cc3)CC1C2C(=O)OC (stereo not shown) [Compound 13, 3-[(4″-hydroxybenzylidene)hydrazineylidene]dregamine]	3.94	1.16	30.5 ± 0.95	0.361	Synergism	
7.47 ± 0.17	0.85	8.84 ± 0.76	CCC1CN(C)C2Cc3c([nH]c4ccccc34)C(=NN=Cc3ccc(Br)cc3)CC1C2C(=O)OC (stereo not shown) [Compound 8, 3-[(4″-bromobenzylidene)hydrazineylidene]dregamine]	1.56	1.32	11.7 ± 2.07	0.451	Synergism	

More lines, now with the values behind:

SMILES	IC50 [2] [µM]	RR (relative resistance ratio) = IC50MDR/IC50PAR [2]	IC50 [3] [µM]	SI C/B (Selectivity Index) [1]	SI C/A (Selectivity Index) [1]	IC50 ([1]; NIH3T3) [µM]	CI at ED50 (combination index) [4]	Interaction [4]	IC50 [1] [µM]
CC[C@H]1CN(C)[C@H]2Cc3c([nH]c4ccccc34)C(=O)C[C@H]1C2C(=O)OC (stereo partly shown) [Compound 1, Dregamine]	23 ± 0.48	0.62	37.2 ± 4.99	>4.35	>2.69	> 100	0.756		
CCC1CN(C)C2Cc3c([nH]c4ccccc34)C(=NN=Cc3ccc(OCc4ccccc4)cc3)CC1C2C(=O)OC (stereo not shown) [Compound 16, 3-[(4″-(benzyloxy)benzylidene)hydrazineylidene]dregamine]	5.86 ± 0.54	0.66	8.93 ± 0.75	3.12	2.04	18.3 ± 1.3	0.34	Synergism	
CCC1CN(C)C2Cc3c([nH]c4ccccc34)C(=NNC(=O)Nc3ccc(C)cc3)CC1C2C(=O)OC (stereo not shown) [Compound 26]	8.22 ± 1.1	0.87	9.41 ± 0.13	3.15	2.75	25.9 ± 0.81	0.36	Synergism	
CCC1CN(C)C2Cc3c([nH]c4ccccc34)C(=NN=Cc3cccc([N+](=O)[O-])c3)CC1C2C(=O)OC (stereo not shown) [Compound 6, 3-[(3″-nitrobenzylidene)hydrazineylidene]dregamine]	8.72 ± 0.52	0.73	11.9 ± 1.09	1.65	1.21	14.4 ± 1.36	0.279	Strong Synergism	
CCC1CN(C)C2Cc3c([nH]c4ccccc34)C(=NNC(=O)Nc3ccc(OC)cc3)CC1C2C(=O)OC (stereo not shown) [Compound 27, 3-[2″-((4‴-methoxyphenyl)carbamoyl)hydrazineylidene]dregamine]	6.37 ± 0.83	0.92	6.88 ± 0.35	6.32	5.84	40.2 ± 3.49	0.225	Strong Synergism	
CCCC=NN=C1CC2C(CC)CN(C)C(Cc3c1[nH]c1ccccc31)C2C(=O)OC (stereo not shown) [Compound 3, 3-[(butylidene)hydrazineylidene]dregamine]	31.5 ± 1.84	0.59	53.1 ± 3.16	>3.17	>1.88	> 100	0.305	Synergism	
N.N.[Cl][Pt][Cl] [Cisplatin, reference compound]			8.16 ± 1.7						1.06 ± 0.02
CCC1CN(C)C2Cc3c([nH]c4ccccc34)C(=NN=Cc3ccccc3Br)CC1C2C(=O)OC (stereo not shown) [Compound 4, 3-[(2″-bromobenzylidene)hydrazineylidene]dregamine]	10.9 ± 1.34	0.57	19.1 ± 0.76	3.22	1.83	34.9 ± 5.63			
